Results published in US11203571B2, “Sulfonamides as modulators of sodium channels” (VERTEX PHARMACEUTICALS INCORPORATED, priority 2013, dated 2021).

Assays:
[1] = Human liver microsome assay; type: in vitro ADME; settings: 1 uM substrate, 0.5 mg/mL liver microsome, 2 mM NADPH, 37° C., referenced against time zero control
Experimental: Human Liver Microsome Assay Protocol
Liver microsomal stability data were generated as follows. Substrates were incubated at 37° C. and shaken for 30 minutes in a phosphate buffered solution with human liver microsomes and the cofactor NADPH. A time zero control was similarly prepared, however with NADPH excluded. The final incubation concentrations were 1 uM substrate (0.2% DMSO), 0.5 mg/mL liver microsome, 2 mM NADPH, and 0.1 M phosphate. Reactions were quenched and proteins precipitated with the addition of 2 volume equivalents of ice cold acetonitrile containing an internal standard. Following a centrifugation step, aliquots from the quenched incubations were further diluted with 4 volume equivalents of a 50% aqueous methanol solution and then subjected to LC/MS/MS analysis for quantitation of parent substrate. Microsome stability values were calculated as the percent of substrate remaining after 30 minutes referenced against the time zero control.

[2] = target: human Nav1.8 (Homo sapiens (Human), UniProt Q9Y5Y9); assay: E-VIPR optical membrane potential assay with electrical stimulation; type: cell-based; settings: HEK cells expressing human Nav1.8
Sequence of human Nav1.8 (Q9Y5Y9 whole entry): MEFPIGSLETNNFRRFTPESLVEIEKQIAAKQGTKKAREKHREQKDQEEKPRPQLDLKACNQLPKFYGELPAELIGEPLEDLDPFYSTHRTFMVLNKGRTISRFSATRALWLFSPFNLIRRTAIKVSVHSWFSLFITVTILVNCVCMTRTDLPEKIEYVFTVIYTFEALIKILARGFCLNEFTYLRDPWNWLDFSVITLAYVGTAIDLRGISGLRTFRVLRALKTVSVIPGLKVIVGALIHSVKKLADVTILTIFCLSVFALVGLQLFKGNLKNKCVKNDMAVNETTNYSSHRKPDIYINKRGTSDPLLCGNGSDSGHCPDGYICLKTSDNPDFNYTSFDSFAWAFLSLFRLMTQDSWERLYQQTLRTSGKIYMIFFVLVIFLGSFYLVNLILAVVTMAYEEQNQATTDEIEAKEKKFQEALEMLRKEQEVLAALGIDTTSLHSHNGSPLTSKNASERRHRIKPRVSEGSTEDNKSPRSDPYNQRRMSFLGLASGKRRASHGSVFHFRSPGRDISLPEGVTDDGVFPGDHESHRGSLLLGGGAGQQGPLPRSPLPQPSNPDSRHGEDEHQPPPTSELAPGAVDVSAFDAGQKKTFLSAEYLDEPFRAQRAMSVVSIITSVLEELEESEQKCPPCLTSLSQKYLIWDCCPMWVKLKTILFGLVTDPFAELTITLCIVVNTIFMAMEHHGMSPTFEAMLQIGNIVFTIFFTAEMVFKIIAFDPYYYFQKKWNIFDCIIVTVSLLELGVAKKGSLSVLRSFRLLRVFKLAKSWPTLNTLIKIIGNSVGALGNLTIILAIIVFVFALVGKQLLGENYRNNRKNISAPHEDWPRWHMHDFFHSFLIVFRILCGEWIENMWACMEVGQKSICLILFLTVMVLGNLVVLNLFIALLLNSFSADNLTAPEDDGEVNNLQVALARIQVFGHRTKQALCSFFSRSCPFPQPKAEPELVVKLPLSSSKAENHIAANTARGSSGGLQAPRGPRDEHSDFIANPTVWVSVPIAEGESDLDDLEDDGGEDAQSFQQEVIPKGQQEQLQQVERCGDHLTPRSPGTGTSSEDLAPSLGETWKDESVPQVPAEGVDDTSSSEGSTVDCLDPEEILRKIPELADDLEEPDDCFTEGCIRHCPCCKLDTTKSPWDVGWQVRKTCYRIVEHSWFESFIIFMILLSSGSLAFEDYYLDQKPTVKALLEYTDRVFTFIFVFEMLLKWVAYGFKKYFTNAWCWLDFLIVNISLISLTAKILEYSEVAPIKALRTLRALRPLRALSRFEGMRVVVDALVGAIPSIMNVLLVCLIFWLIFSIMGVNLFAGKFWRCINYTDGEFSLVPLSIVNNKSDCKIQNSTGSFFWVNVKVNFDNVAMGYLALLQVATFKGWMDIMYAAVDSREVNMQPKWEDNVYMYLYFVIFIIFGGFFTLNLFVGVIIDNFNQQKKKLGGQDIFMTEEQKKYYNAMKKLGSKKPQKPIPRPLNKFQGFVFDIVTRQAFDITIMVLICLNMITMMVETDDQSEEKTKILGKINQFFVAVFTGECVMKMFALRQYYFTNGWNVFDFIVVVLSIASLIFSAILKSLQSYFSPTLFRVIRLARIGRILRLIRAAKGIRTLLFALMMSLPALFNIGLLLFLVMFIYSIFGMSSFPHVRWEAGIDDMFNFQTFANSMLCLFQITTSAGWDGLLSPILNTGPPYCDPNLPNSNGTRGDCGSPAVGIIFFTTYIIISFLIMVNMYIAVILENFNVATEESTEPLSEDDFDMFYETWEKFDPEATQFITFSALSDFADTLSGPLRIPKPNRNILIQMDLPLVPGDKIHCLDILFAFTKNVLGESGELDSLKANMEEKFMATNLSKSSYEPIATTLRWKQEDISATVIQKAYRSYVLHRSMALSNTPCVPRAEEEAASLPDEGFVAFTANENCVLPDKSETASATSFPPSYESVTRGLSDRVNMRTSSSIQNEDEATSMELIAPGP
From the text: E-VIPR Optical Membrane Potential Assay Method with Electrical Stimulation
Sodium channels are voltage-dependent proteins that can be activated by inducing membrane voltage changes by applying electric fields. The electrical stimulation instrument and methods of use are described in Ion Channel Assay Methods PCT/US01/21652, herein incorporated by reference and are referred to as E-VIPR. The instrument comprises a microtiter plate handler, an optical system for exciting the coumarin dye while simultaneously recording the coumarin and oxonol emissions, a waveform generator, a current- or voltage-controlled amplifier, and a device for inserting electrodes in well. Under integrated computer control, this instrument passes user-programmed electrical stimulus protocols to cells within the wells of the microtiter plate.
24 hours before the assay on E-VIPR, HEK cells expressing human Nav1.8 were seeded in 384-well poly-lysine coated plates at 15,000-20,000 cells per well. HEK cells were grown in media (exact composition is specific to each cell type and NaV subtype) supplemented with 10% FBS (Fetal Bovine Serum, qualified; GibcoBRL #16140-071) and 1% Pen-Strep (Penicillin-Streptomycin; GibcoBRL #15140-122). Cells were grown in vented cap flasks, in 90% humidity and 5% CO2.
• 100 mg/mL Pluronic F-127 (Sigma #P2443), in dry DMSO • Compound Plates: 384-well round bottom plate, e.g. Corning 384-well Polypropylene Round Bottom #3656 • Cell Plates: 384-well tissue culture treated plate, e.g. Greiner #781091-1B • 10 mM DiSBAC6(3) (Aurora #00-100-010) in dry DMSO • 10 mM CC2-DMPE (Aurora #00-100-008) in dry DMSO • 200 mM ABSC1 in H20
Bath1 buffer: Glucose 10 mM (1.8 g/L), Magnesium Chloride (Anhydrous), 1 mM (0.095 g/L), Calcium Chloride, 2 mM (0.222 g/L), HEPES 10 mM (2.38 g/L), Potassium Chloride, 4.5 mM (0.335 g/L), Sodium Chloride 160 mM (9.35 g/L).
Hexyl Dye Solution: Bath1 Buffer+0.5% β-cyclodextrin (make this prior to use, Sigma #C4767), 8 μM CC2-DMPE+2.5 μM DiSBAC6(3). To make the solution Added volume of 10% Pluronic F127 stock equal to volumes of CC2-DMPE+DiSBAC6(3). The order of preparation was first mix Pluronic and CC2-DMPE, then added DiSBAC6(3) while vortexing, then added Bath1+β-Cyclodextrin.
1) Pre-spotted compounds (in neat DMSO) into compound plates. Vehicle control (neat DMSO), the positive control (20 mM DMSO stock tetracaine, 125 μM final in assay) and test compounds were added to each well at 160× desired final concentration in neat DMSO. Final compound plate volume was 80 μL (80-fold intermediate dilution from 1 μL DMSO spot; 160-fold final dilution after transfer to cell plate). Final DMSO concentration for all wells in assay was 0.625%.
2) Prepared Hexyl Dye Solution.
3) Prepared cell plates. On the day of the assay, medium was aspirated and cells were washed three times with 100 μL of Bath1 Solution, maintaining 25 μL residual volume in each well.
4) Dispensed 25 μL per well of Hexyl Dye Solution into cell plates. Incubated for 20-35 minutes at room temp or ambient conditions.
5) Dispensed 80 μL per well of Bath1 into compound plates. Acid Yellow-17 (1 mM) was added and Potassium Chloride was altered from 4.5 to 20 mM depending on the NaV subtype and assay sensitivity.
6) Washed cell plates three times with 100 μL per well of Bath1, leaving 25 μL of residual volume. Then transferred 25 uL per well from Compound Plates to Cell Plates. Incubated for 20-35 minutes at room temp/ambient condition.
7) Read Plate on E-VIPR. Used the current-controlled amplifier to deliver stimulation wave pulses for 10 seconds and a scan rate of 200 Hz. A pre-stimulus recording was performed for 0.5 seconds to obtain the un-stimulated intensities baseline. The stimulatory waveform was followed by 0.5 seconds of post-stimulation recording to examine the relaxation to the resting state.
Data was analyzed and reported as normalized ratios of emission intensities measured in the 460 nm and 580 nm channels. […]

Row | Structure (SMILES) | HLM: percent unchanged after 30 min [1] [%] | IC50 [2] [nM]
1 | COc1ccc(Oc2ccc(C(F)(F)F)cc2C(=O)Nc2cccc(S(N)(=O)=O)c2)cc1 [Compound 22, 2-(4-methoxyphenoxy)-N-(3-sulfamoylphenyl)-5-(trifluoromethyl)benzamide] | 88 | 28
2 | CCOc1ccc(Oc2ccc(C(F)(F)F)cc2C(=O)Nc2cccc(S(N)(=O)=O)c2)cc1 [Compound 23, 2-(4-ethoxyphenoxy)-N-(3-sulfamoylphenyl)-5-(trifluoromethyl)benzamide] | 75 | 14
3 | Cc1cc(F)ccc1Oc1ccc(C(F)(F)F)cc1C(=O)Nc1cccc(S(N)(=O)=O)c1 [Compound 25, 2-(4-fluoro-2-methylphenoxy)-N-(3-sulfamoylphenyl)-5-(trifluoromethyl)benzamide] | 94 | 4
4 | COc1cc(F)ccc1Oc1ccc(C(F)(F)F)cc1C(=O)Nc1cccc(S(N)(=O)=O)c1 [Compound 27, 2-(4-fluoro-2-methoxyphenoxy)-N-(3-sulfamoylphenyl)-5-(trifluoromethyl)benzamide] | 101 | 6
5 | COc1c(F)cccc1Oc1ccc(C(F)(F)F)cc1C(=O)Nc1cccc(S(N)(=O)=O)c1 [Compound 29, 2-(3-fluoro-2-methoxyphenoxy)-N-(3-sulfamoylphenyl)-5-(trifluoromethyl)benzamide] | 100 | 5
6 | Cc1cccc(Oc2ccc(F)cc2Cl)c1C(=O)Nc1cccc(S(N)(=O)=O)c1 [Compound 38, 2-(2-chloro-4-fluorophenoxy)-6-methyl-N-(3-sulfamoylphenyl)benzamide] | 105 | 14
7 | NS(=O)(=O)c1cccc(NC(=O)c2cc(C(F)(F)F)ccc2Oc2ccc(OC(F)(F)F)cc2)c1 [Compound 39, N-(3-sulfamoylphenyl)-2-(4-(trifluoromethoxy)phenoxy)-5-(trifluoromethyl)benzamide] | 104 | 10
8 | NS(=O)(=O)c1cccc(NC(=O)c2cc(C(F)F)ccc2Oc2ccc(F)cc2Cl)c1 [Compound 40, 2-(2-chloro-4-fluorophenoxy)-5-(difluoromethyl)-N-(3-sulfamoylphenyl)benzamide] | 107 | 7
9 | COc1ccc(Oc2cc(C(F)(F)F)ccc2C(=O)Nc2cccc(S(N)(=O)=O)c2)cc1F [Compound 43, 2-(3-fluoro-4-methoxyphenoxy)-N-(3-sulfamoylphenyl)-4-(trifluoromethyl)benzamide] | 90 | 21
10 | COc1ccccc1Oc1cc(C(F)(F)F)ccc1C(=O)Nc1cccc(S(N)(=O)=O)c1 [Compound 44, 2-(2-methoxyphenoxy)-N-(3-sulfamoylphenyl)-4-(trifluoromethyl)benzamide] | 79 | 20

The remaining compounds from weak to strong by IC50 [2], led by results:

Row | HLM: percent unchanged after 30 min [1] [%] | IC50 [2] [nM] | Structure (SMILES)
11 | 102 | 30 | NS(=O)(=O)c1cccc(NC(=O)c2cc(C(F)(F)F)ccc2Oc2ccc(Cl)cc2)c1 [Compound 24, 2-(4-chlorophenoxy)-N-(3-sulfamoylphenyl)-5-(trifluoromethyl)benzamide]
12 | 95 | 22 | NS(=O)(=O)c1cccc(NC(=O)c2cc(C(F)(F)F)ccc2Oc2ccc(OC(F)F)cc2)c1 [Compound 41, 2-(4-(difluoromethoxy)phenoxy)-N-(3-sulfamoylphenyl)-5-(trifluoromethyl)benzamide]
13 | 92 | 16 | COc1ccc(Oc2ccc(C(F)(F)F)cc2C(=O)Nc2cccc(S(N)(=O)=O)c2)cc1F [Compound 28, 2-(3-fluoro-4-methoxyphenoxy)-N-(3-sulfamoylphenyl)-5-(trifluoromethyl)benzamide]
14 | 96 | 14 | COc1ccccc1Oc1ccc(C(F)(F)F)cc1C(=O)Nc1cccc(S(N)(=O)=O)c1 [Compound 34, 2-(2-methoxyphenoxy)-N-(3-sulfamoylphenyl)-5-(trifluoromethyl)benzamide]
15 | 84 | 10 | COc1cc(Cl)ccc1Oc1cc(C(F)(F)F)ccc1C(=O)Nc1cccc(S(N)(=O)=O)c1 [Compound 42, 2-(4-chloro-2-methoxyphenoxy)-N-(3-sulfamoylphenyl)-4-(trifluoromethyl)benzamide]
16 | 103 | 9 | Cc1cc(Cl)ccc1Oc1ccc(C(F)(F)F)cc1C(=O)Nc1cccc(S(N)(=O)=O)c1 [Compound 30, 2-(4-chloro-2-methylphenoxy)-N-(3-sulfamoylphenyl)-5-(trifluoromethyl)benzamide]
17 | 76 | 8 | Cc1ccccc1Oc1ccc(C(F)(F)F)cc1C(=O)Nc1cccc(S(N)(=O)=O)c1 [Compound 32, N-(3-sulfamoylphenyl)-2-(o-tolyloxy)-5-(trifluoromethyl)benzamide]
18 | 82 | 6 | COc1ccc(Oc2ccc(C(F)(F)F)cc2C(=O)Nc2cccc(S(N)(=O)=O)c2)c(Cl)c1 [Compound 31, 2-(2-chloro-4-methoxyphenoxy)-N-(3-sulfamoylphenyl)-5-(trifluoromethyl)benzamide]
19 | 76 | 6 | CC(C)Oc1ccc(Oc2ccc(C(F)(F)F)cc2C(=O)Nc2cccc(S(N)(=O)=O)c2)cc1 [Compound 37, 2-(4-isopropoxyphenoxy)-N-(3-sulfamoylphenyl)-5-(trifluoromethyl)benzamide]
20 | 102 | 5 | NS(=O)(=O)c1cccc(NC(=O)c2c(Oc3ccc(F)cc3Cl)cccc2C(F)(F)F)c1 [Compound 33, 2-(2-chloro-4-fluorophenoxy)-N-(3-sulfamoylphenyl)-6-(trifluoromethyl)benzamide]
21 | 82 | 5 | COc1cc(Cl)ccc1Oc1ccc(C(F)(F)F)cc1C(=O)Nc1cccc(S(N)(=O)=O)c1 [Compound 35, 2-(4-chloro-2-methoxyphenoxy)-N-(3-sulfamoylphenyl)-5-(trifluoromethyl)benzamide]
22 | 119 | 4 | NS(=O)(=O)c1cccc(NC(=O)c2cc(C(F)(F)F)ccc2Oc2ccc(F)cc2Cl)c1 [Compound 26, 2-(2-chloro-4-fluorophenoxy)-N-(3-sulfamoylphenyl)-5-(trifluoromethyl)benzamide]
23 | 66 | 4 | COc1ccc(Oc2ccc(C(F)(F)F)cc2C(=O)Nc2cccc(S(N)(=O)=O)c2)c(OC)c1 [Compound 36, 2-(2,4-dimethoxyphenoxy)-N-(3-sulfamoylphenyl)-5-(trifluoromethyl)benzamide]
